This test can be described thus: Compound was tested for the inhibition of IL1-beta and interleukin-6-production. The format is functional.

For `Nc1ncnc2c1ncn2[C@@H]1CC[C@@H](O)C1`, the IC50 – broadly, the concentration at which inhibition is half-maximal – was 9 µM.

Values taken from ChEMBL document CHEMBL1132161, “Therapeutic potential and strategies for inhibiting tumor necrosis factor-alpha” (J Med Chem, 1999).
